From paper doi:10.1101/2020.02.18.955294v1 (biorxiv, 2020)

Target: NC1 (DGCR8 dimer) (Homo sapiens, UniProt Q8WYQ5, P351A)
Assay: biochemical

Chain of NC1 (DGCR8 dimer) (Q8WYQ5 276-751 P351A): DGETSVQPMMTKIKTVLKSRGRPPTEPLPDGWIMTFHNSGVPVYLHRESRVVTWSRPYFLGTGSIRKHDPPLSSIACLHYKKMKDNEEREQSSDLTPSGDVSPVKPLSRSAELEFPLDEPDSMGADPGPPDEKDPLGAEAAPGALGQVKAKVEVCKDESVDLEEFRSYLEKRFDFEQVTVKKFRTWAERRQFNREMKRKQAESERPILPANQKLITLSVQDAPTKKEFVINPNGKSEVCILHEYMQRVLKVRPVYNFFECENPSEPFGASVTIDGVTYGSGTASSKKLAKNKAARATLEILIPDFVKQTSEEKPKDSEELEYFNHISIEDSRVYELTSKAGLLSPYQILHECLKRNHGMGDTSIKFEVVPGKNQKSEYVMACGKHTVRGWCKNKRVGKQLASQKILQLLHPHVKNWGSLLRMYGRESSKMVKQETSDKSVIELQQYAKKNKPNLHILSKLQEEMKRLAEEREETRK

Kd: ~5 pM
SMILES: C=CC1=C(C)C2=Cc3c(C=C)c(C)c4[n]3[Fe]([Cl])[n]3c(c(C)c(CCC(=O)O)c3=CC3=NC(=C4)C(C)=C3CCC(=O)O)=CC1=N2 [Fe(III) heme]
